Experimental data from patent US20230102503A1, “BIOMARKERS FOR OXYTOCIN RECEPTOR ANTAGONIST THERAPY” (ObsEva S.A., priority 2020, published 2023).

What was measured:
[1] = target: CYP3A4 (Homo sapiens, UniProt P08684); experiment: metabolism by CYP3A4 isoform; assay type: in vitro ADME
Description: (§1) At five time points over the course of a 45 minute experiment, the compounds were analyzed by LC-MS/MS. The percentage of each compound remaining at each time point, along with the metabolic half-lives of each compound in the presence of each cytochrome P450 isoform, are indicated in Tables 10-12, below.

[2] = plasma concentration of compound (II) in clinical trial of Example 4; assay type: in vivo, human; settings: oral administration of either the 900 mg or the 1,800 mg dose
Description: (§2) Particularly, subjects were pre-treated with estradiol valerate at a dosage of 2 mg administered 3 times per day (TID) for 16 days. Administration of estradiol valerate was followed by vaginal progesterone at a dosage of 200 mg administered TID.

[3] = system: healthy female volunteers; experiment: uterine contractions and endometrial blood flow in clinical trial of Example 4; assay type: in vivo, human; settings: single oral dose of 900 mg or 1,800 mg
Description: as §2
These assessments included measurements of uterine contractions by ultrasound and uterine perfusion by a 3D-power Doppler technique.
Mean and median changes in uterine contraction frequency and endometrial vascularity indices (particularly, endometrial flow index (FI), vascularity index (VI), and vascularity flow index (VFI)) were calculated. […] Differences in endometrial mRNA expression were identified and assessed for statistical significance.

[4] = system: endometrial RNA transcript expression (DPP4, CNTNAP3, CNTN4, CXCL12, TNXB, CTSE, OLFM4, KRT5, KRT6A, IDO2); experiment: RNA-Seq assay of endometrial tissue mRNA expression before and after administration; assay type: in vivo, human
Description: Using an RNA-Seq assay, each subject's mRNA expression level of a variety of genes, including DPP4, CNTNAP3, CNTN4, CXCL12, TNXB, CTSE, OLFM4, KRT5, KRT6A, and IDO2, was then assessed to determine whether the expression of each gene increased, decreased, or underwent no significant change due to administration of the compound or placebo.

[5] = system: uterine contractions; experiment: Uterine contractions after single dose versus placebo; assay type: in vivo, human
[6] = system: endometrial perfusion; experiment: Endometrial perfusion parameters (VI, FI, VFI) after single dose; assay type: in vivo, human; settings: for increase in median endometrial VFI: between pre-dose and 24-hour post-dose
[7] = system: spontaneous uterine contractions; settings: same vehicle, same model organism; cited from earlier work
[8] = crystal form with XRPD peaks of Table 1; cited from earlier work
[9] = dispersible tablet formulations; cited from earlier work
[10] = target: CYP2D6 (Homo sapiens, UniProt P10635); experiment: metabolism by CYP2D6 isoform; assay type: in vitro ADME
Description: as §1

[11] = target: CYP2C19 (Homo sapiens, UniProt P33261); experiment: metabolism by CYP2C19 isoform; assay type: in vitro ADME
Description: as §1

[12] = 1,800 mg dose, within 24 hours of administration

Chain of CYP2D6 (P10635 whole entry, canonical isoform): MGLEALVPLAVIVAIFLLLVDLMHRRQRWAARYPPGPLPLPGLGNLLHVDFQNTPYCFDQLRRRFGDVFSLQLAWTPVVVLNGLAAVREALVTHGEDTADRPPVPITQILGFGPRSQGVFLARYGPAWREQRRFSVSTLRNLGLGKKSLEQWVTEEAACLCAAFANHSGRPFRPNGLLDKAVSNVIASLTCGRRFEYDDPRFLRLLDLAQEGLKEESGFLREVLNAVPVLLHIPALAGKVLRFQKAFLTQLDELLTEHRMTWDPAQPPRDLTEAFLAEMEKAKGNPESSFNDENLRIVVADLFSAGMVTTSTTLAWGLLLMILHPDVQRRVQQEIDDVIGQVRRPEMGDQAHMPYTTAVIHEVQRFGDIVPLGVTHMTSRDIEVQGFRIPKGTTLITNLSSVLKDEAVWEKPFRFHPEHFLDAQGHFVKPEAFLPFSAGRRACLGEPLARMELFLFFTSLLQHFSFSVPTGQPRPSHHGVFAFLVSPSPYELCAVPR
Chain of CYP3A4 (P08684 whole entry, canonical isoform): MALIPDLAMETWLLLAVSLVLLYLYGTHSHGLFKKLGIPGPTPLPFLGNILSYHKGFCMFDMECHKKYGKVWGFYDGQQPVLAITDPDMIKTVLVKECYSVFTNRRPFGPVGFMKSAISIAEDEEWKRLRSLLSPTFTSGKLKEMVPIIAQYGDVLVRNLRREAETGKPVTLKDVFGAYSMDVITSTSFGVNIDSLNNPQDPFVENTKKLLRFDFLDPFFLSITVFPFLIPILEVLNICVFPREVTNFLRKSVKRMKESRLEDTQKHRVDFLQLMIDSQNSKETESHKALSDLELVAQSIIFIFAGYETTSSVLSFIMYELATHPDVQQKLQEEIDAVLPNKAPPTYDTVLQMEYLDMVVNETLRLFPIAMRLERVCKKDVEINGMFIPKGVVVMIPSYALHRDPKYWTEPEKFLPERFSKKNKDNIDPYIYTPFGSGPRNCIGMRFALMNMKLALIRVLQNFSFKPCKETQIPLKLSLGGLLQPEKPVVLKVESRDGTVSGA
Chain of CYP2C19 (P33261 whole entry, canonical isoform): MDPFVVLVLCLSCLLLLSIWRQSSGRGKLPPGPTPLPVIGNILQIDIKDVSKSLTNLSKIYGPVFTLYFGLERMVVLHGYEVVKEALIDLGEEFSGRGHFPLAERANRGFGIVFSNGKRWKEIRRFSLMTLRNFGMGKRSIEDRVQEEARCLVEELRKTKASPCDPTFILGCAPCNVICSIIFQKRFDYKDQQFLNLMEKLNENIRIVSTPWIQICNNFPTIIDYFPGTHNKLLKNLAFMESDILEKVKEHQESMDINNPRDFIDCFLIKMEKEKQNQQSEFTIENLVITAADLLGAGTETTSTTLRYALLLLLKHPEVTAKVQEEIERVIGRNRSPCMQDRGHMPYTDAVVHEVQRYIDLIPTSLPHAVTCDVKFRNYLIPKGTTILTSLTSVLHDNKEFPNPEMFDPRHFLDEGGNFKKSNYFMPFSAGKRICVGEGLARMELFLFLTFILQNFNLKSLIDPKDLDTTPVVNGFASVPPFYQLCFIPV

## CO/N=C1/C[C@@H](CO)N(C(=O)c2ccc(-c3ccccc3C)cc2)C1 [Compound (II), (3Z,5S)-5-(hydroxymethyl)-1-[(2′-methyl-1,1′-biphenyl-4-yl)carbonyl]pyrrolidin-3-one O-methyloxime]
[1]
  preferential metabolism by cytochrome P450 isoform: preferentially metabolized by the CYP3A4 isoform of cytochrome P450
[2]
  time to maximum concentration: about 4 hours
[3]; FIG. 7
  effect on uterine contractions: decrease uterine contractions
[3]; FIGS. 8-10
  effect on endometrial blood flow (FI, VI, VFI): marked and sustained increase in endometrial blood flow
[4]; 900 mg dose
  differences in mRNA expression in endometrial biopsy tissue compared to placebo: No differences
[4]; [12]
  number of mRNAs downregulated: 5
  number of mRNAs upregulated: 5
[4]; 1,800 mg dose, within 24 hours of administration, adjusted p<0.05
  number of mRNAs significantly differentially expressed: 10
[5]; 900 mg dose, 24-hour time point only (p=0.0437)
  proportion of subjects showing less than one uterine contraction per minute versus placebo: significant difference
[5]; 900 mg dose, all time points (p>0.10)
  number of uterine contractions per minute versus placebo: no significant difference
[5]; 1,800 mg dose, 8-hour time point (p=0.0121)
  proportion of subjects showing less than one uterine contraction per minute versus placebo: significance was seen
[5]; 1,800 mg dose, from the 4-hour time point onwards (p=0.0923 at 4 h, p=0.0081 at 8 h)
  number of uterine contractions per minute versus placebo: contraction-reducing effects were observed
[6]; 900 mg dose, 24-hour time point (p=0.0502)
  Endometrial Fl: significant increases
[6]; 900 mg dose
  increase in median endometrial VFI: approximately 3 fold
[6]; 1,800 mg dose, 8-hour time point (p=0.0714)
  endometrial VI versus placebo: substantial increase
[6]; 1,800 mg dose, 24-hour time point (p=0.0625)
  Endometrial Fl: significant increases
[6]; 1,800 mg dose
  increase in median endometrial VFI: approximately 3 fold
[7]
  inhibitory activity with respect to uterine contraction, compared with (3E) diastereomer: markedly higher than that of the substantially pure (3E) diastereomer
[8]
  stability of crystal form: enhanced stability to aqueous media and physical stress
[9]
  absorption kinetics upon administration to a subject: rapid absorption kinetics

## CO/N=C1\C[C@@H](CO)N(C(=O)c2ccc(-c3ccccc3C)cc2)C1 [(3E) isomer, (3E,5S)-5-(hydroxymethyl)-1-[(2′-methyl-1,1′-biphenyl-4-yl)carbonyl]pyrrolidin-3-one O-methyloxime]
[10]
  preferential metabolism by cytochrome P450 isoform: preferentially metabolized by the CYP2D6 and CYP2C19 isoforms of cytochrome P450
[11]
  preferential metabolism by cytochrome P450 isoform: preferentially metabolized by the CYP2D6 and CYP2C19 isoforms of cytochrome P450
